Reference: PubChem BioAssay AID463099 (The Scripps Research Institute Molecular Screening Center, 2010)

Tested on: IMP-1-expressing E. coli growth, with imipenem, MIC
Test: growth inhibition of IMP-1-expressing E. coli, late-stage follow-up, counter-screen for IMP-1/VIM-2 inhibitor project, imipenem co-treatment, MIC (AID 463099)

Compound | MIC
Cc1cc[c]([Hg+])cc1 | 0.94 µM
COc1cccc[c]1[Hg+] | 1.09 µM
O=C(O)c1cc[c]([Hg][Cl])cc1 | 9.38 µM
O=C(O)c1ccc[c]([Hg+])c1 | 3.75 µM
[Hg+][c]1ccccc1 | 0.63 µM
CC(=O)Nc1cc[c]([Hg+])cc1 | 2.5 µM
